Laboratory results published in patent EP4813988A1, “AI-DESIGNED BENZODIAZEPINE DERIVATIVE AND USE THEREOF” (Shenzhen Newrosetta Biosciences Co., Ltd, priority 2024, dated 2025).
pIC50: −log10 of the molar value. Read-outs that look alike come from different tables or passages of the source.

Key:
Human M3 receptor = biological target: T1, Human M3 receptor (Homo sapiens, UniProt P20309); assay: FLIPR Calcium 6 assay for inhibitory activity against Human M3 receptor in CHO cells; format: cell-based; conditions: FLIPR calcium signal, antagonist mode
T1 construct: expressed in transfected cells
T1 sequence (P20309 whole entry): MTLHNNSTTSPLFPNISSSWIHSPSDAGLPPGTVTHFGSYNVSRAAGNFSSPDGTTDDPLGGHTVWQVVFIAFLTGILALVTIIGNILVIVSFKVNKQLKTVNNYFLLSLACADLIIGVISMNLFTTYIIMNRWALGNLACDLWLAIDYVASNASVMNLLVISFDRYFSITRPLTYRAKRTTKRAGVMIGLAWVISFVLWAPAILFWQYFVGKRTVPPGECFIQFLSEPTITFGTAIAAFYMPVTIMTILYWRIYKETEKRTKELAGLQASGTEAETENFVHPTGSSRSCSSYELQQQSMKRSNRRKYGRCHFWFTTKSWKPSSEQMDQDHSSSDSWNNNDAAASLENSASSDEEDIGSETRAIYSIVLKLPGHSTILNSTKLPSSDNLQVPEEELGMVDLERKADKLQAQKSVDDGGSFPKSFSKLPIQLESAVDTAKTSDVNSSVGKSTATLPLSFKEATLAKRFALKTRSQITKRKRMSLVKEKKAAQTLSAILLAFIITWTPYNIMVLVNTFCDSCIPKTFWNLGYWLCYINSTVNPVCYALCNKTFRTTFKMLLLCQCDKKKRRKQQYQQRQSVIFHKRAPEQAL
Experimental: (§1) CHO cell lines stably expressing Human M2 and Human M3, respectively, were used. The effects of the compounds on the activity of the Human M2 and Human M3 receptors were determined using the FLIPR Calcium 6 Assay Kit. The effects of the test substances on Human M2 and Human M3 were studied according to changes in cell signal intensity, and the corresponding concentration-response curves were calculated.
(§2) • 1. The Human M2-CHO and Human M3-CHO cell lines were cultured in an F-12 culture medium containing 10% fetal bovine serum (AusGeneX, FBS500-S) and 0.2 mg/mL Hygromycin B (Solarbio, H8080-1g) at a culture temperature of 37 °C with 5% carbon dioxide. • 2. Cell passage: The old culture medium was removed in a biosafety cabinet, and the cells were washed once with PBS; 1 mL of 0.25% Trypsin-EDTA (Gibco, 25200-072) solution was then added; and the cells were incubated at 37 °C for about 2 min. When the cells were detached from the bottom of the dish, about 5 mL of complete culture medium pre-heated at 37 °C was added. The cell suspension was gently pipetted to separate the aggregated cells. The cell suspension was transferred to a sterile centrifuge tube and centrifuged at 1000 rpm for 5 min. • 3. In order to maintain the physiological activity of the cells, the experimental cell confluence was controlled at about 80% as observed under an inverted microscope (Olympus, CKX53).
(§3) • 1. Cell plating: Human M2-CHO and Human M3-CHO cells were digested, collected, resuspended, counted, and then seeded into a 384-well cell plate (Corning, 3764) at a density of 1.2 × 10^4 cells/25 µL /well; the cell plate was then incubated in a 5% CO2 incubator at 37 °C for about 16-20 h. • 2. On day 2, an Assay Buffer (20 mM HEPES + 1× HBSS) was prepared according to the instructions of the FLIPR Calcium 6 Assay Kit (Molecular Devices, R8191); after 20× Component A was freeze-thawed to room temperature, it was diluted to 1× loading buffer with the Assay buffer, and placed at room temperature for later use. • 3. The culture medium in the cell plate was removed, 35 µL of the 1× loading buffer described above was quickly added to each well, and the cell plate was centrifuged using a microplate low speed centrifuge and then incubated in the dark at 37 °C for 120 min. • 4. The working solutions of a positive compound and the test compounds were each prepared in a 96-well dilution plate (Biao Sen, P-0.6-BSA-96-S); 5 µL of each solution was transferred to the corresponding cell wells; and the cell plate was incubated at 37 °C for 30 min in the dark. • 5. An agonist working solution was prepared and transferred to a 384-well compound plate (Corning, 264573) at 20 µL /well. • 6. The cell plate (Corning, 3764), the 384-well compound plate (Corning, 264573), and pipette tips were placed at corresponding positions of the FLIPR instrument; 10 µL of the agonist diluted in step 5 was added to each experimental well using the FLIPR® Penta; and data were collected at the wavelength of 515-575 nm. • 7. The signal values were plotted against the compound concentrations, and based on a non-linear regression method using the GraphPad Prism software, the curves were fit, and the IC50 values were calculated.
(§4) • 1) Z′ factor = 1−3 × (SDMax+SDMin)/(AVGMax−AVGMin) [formula] • 2) CV Max = (SDMax/AVGMax) × 100% [formula] • 3) CV Min = (SDMin/AVGMin) × 100% [formula] • 4) Signal−to−noise ratio S/B = AVGMax /AVGMin [formula] • 5) The IC50 values of the compounds were calculated using the GraphPad Prism non-linear fitting formula: Y = Bottom + (Top−Bottom)/(1+10^(∧)((LogIC50−X)×HillSlope)) [formula] • 6) % inhibition rate formula: [formula] • Ratiopositive: mean value of positive control. • Ratiovehicle: mean value of negative control (0.1% DMSO).
(§5) According to the experimental method described above, the inhibitory activity of the compounds disclosed herein against Human M2 and M3 receptors was assayed with AFDX-116 as a positive control compound. Table 3. […]

Human M2 receptor = biological target: T2, Human M2 receptor (Homo sapiens, UniProt P08172); assay: FLIPR Calcium 6 assay for inhibitory activity against Human M2 receptor in CHO cells; format: cell-based; conditions: for M3/M2 selectivity: IC50 ratio of M3/M2
T2 construct: expressed in transfected cells
T2 sequence (P08172 1-466): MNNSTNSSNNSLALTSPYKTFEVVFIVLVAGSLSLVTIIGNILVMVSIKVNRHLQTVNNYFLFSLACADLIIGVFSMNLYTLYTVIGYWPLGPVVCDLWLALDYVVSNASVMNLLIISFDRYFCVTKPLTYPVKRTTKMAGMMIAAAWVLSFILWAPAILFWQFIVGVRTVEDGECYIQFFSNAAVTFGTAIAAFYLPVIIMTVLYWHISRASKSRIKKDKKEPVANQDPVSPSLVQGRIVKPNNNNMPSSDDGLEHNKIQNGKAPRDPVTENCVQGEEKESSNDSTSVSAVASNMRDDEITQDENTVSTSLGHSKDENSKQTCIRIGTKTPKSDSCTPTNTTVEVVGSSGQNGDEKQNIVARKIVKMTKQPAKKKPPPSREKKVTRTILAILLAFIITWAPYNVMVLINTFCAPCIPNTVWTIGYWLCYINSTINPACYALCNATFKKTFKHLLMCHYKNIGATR
Experimental: as §1, §2, §3, §4, §5

guinea pig myopia model = assay: In vivo efficacy evaluation in form-deprivation guinea pig myopia model (diopter by infrared photorefractor); conditions: 20 µL/eye once daily; for slowing down the progression of refraction decrease: 0.5 wt% eye drops, versus negative control group
Text: Objective: To evaluate the inhibitory effect of compound 2 on the progression of myopia (refractive error) in a guinea pig myopia model. Young guinea pigs have inherent refractive hyperopia, which gradually progresses towards emmetropization during eye development. Form deprivation accelerates the process of emmetropization. In this test, the delaying effect of compound 2 on the process of refractive emmetropization in modeled young guinea pigs was investigated.
Sample preparation: 0.5 wt% compound 2 eye drops were formulated with compound 2 and a 10 wt% aqueous sulfobutylether-beta-cyclodextrin solution.
Grouping: The guinea pigs were evenly divided into 3 groups according to the refractive value of the right eye: a negative control group, a model control group, and a compound 2 group.
Modeling: Animals other than the negative control group were modeled. A myopia model was made by suturing the eyelid of the right eye. The modeling procedure is as follows: After hair removal was performed on the right eyes of all animals, the right eyes were sutured in a U-shape to achieve form deprivation and accelerate the process of emmetropization. The guinea pigs were fed for 28 days after the first suture.
Administration: Starting from the day of suture modeling, eye drops were administered to the right eyes of the animals in each group according to settings (the samples for administration are shown in Table 4) at 20 µL /eye once daily for 28 consecutive days. Table 4. Administration and dosage design for each group
Test: Diopter was measured on day 15 and day 29 after modeling using an infrared photorefractor (ST-PR.01, Striatech).

[1] = Human M2-CHO cells, FLIPR calcium signal, antagonist mode, read-out: M2 IC50

| pIC50 (Human M3 receptor) | pIC50 (Human M2 receptor; [1]) | M3/M2 selectivity (Human M2 receptor) | Compound | pIC50 (Human M2 receptor) | diopter (refractive value) (guinea pig myopia model; day 15, 0.5 wt% compound 2 eye drops, right eye, form deprivation by eyelid suture) | slowing down the progression of refraction decrease (guinea pig myopia model; day 15 of administration) | slowing down the progression of refraction decrease (guinea pig myopia model; day 29 of administration) |
| --- | --- | --- | --- | --- | --- | --- | --- |
| 5.17 | 8.18 | 1041 | CCN(CCN(C)CC1CCC2(CCCCC2)CC1)C(=O)CCC(=O)N1c2ccccc2C(=O)Nc2cccnc21 [Compound 3] | – | – | – | – |
| 6.56 | 8.73 | 149 | CCN(CCN(C)C1CCC2(CCCC2)C1)C(=O)CCC(=O)N1c2ccccc2C(=O)Nc2cccnc21 (stereo not drawn) [Compound 11] | – | – | – | – |
| 6.74 | 8.74 | 101 | CCN(CCN(C)C1CC2CCCC2C1)C(=O)CCC(=O)N1c2ccccc2C(=O)Nc2cccnc21 (stereo not drawn) [Compound 12] | – | – | – | – |
| 6.59 | 8.26 | 47.6 | CCN(CCN(C)C1C2CCCC21)C(=O)CCC(=O)N1c2ccccc2C(=O)Nc2cccnc21 (stereo not drawn) [Compound 13] | – | – | – | – |
| 5.71 | 8.59 | 762 | CCN(CCN(C)C1CC2(CCCCC2)C1)C(=O)CCC(=O)N1c2ccccc2C(=O)Nc2cccnc21 [Compound 10] | – | – | – | – |
| 6.14 | 9.06 | 838 | CCN(CCN(C)C12CC3CC(CC(C3)C1)C2)C(=O)CCC(=O)N1c2ccccc2C(=O)Nc2cccnc21 [Compound 6] | – | – | – | – |
| 6.21 | 8.49 | 189 | CCN(CCN(C)C1CCC2(CCCCC2)CC1)C(=O)CCC(=O)N1c2ccccc2C(=O)Nc2cccnc21 [Compound 1] | – | – | – | – |
| 7.27 | 9.15 | 75.87 | CCN(CCN1CC2CC2C1)C(=O)CCC(=O)N1c2ccccc2C(=O)Nc2cccnc21 (stereo not drawn) [Compound 7] | – | – | – | – |
| 7.25 | 9.13 | 76 | CCN(CCN1CCC2(CCCCC2)CC1)C(=O)CCC(=O)N1c2ccccc2C(=O)Nc2cccnc21 [Compound 2] | – | increase in the positive refractive value | superior to the negative control group | comparable to the negative control group |
| 6.61 | 8.95 | 217.6 | O=C1Nc2cccnc2N(C(=O)CCC(=O)N2CCCC2CN2CCC3(CCCCC3)CC2)c2ccccc21 (stereo not drawn) [Compound 15] | – | – | – | – |
| 6.05 | 8.53 | 295.7 | CCN(CCN(C)C1CC2(CCC2)C1)C(=O)CCC(=O)N1c2ccccc2C(=O)Nc2cccnc21 [Compound 9] | – | – | – | – |
| 6.88 | 8.83 | 88.6 | CCN(CCN(C)CC12CCC(CC1)C2)C(=O)CCC(=O)N1c2ccccc2C(=O)Nc2cccnc21 [Compound 4] | – | – | – | – |
| 6.85 | 9.05 | 157.7 | CCN(CCN1CCC2(CCC2)CC1)C(=O)CCC(=O)N1c2ccccc2C(=O)Nc2cccnc21 [Compound 8] | – | – | – | – |
| 5.68 | 6.78 | 12 | CCN(CC)CC1CCCCN1CC(=O)N1c2ccccc2C(=O)Nc2cccnc21 (stereo not drawn) [AFDX-116, reference compound] | – | – | – | – |
| 6.48 | 9.08 | 394.1 | O=C1Nc2cccnc2N(C(=O)CCC(=O)N2CCCCC2CN2CCC3(CCCCC3)CC2)c2ccccc21 (stereo not drawn) [Compound 14] | – | – | – | – |

| Compound | pIC50 (Human M3 receptor) | pIC50 (Human M2 receptor; [1]) | M3/M2 selectivity (Human M2 receptor) | pIC50 (Human M2 receptor) | diopter (refractive value) (guinea pig myopia model; day 15, 0.5 wt% compound 2 eye drops, right eye, form deprivation by eyelid suture) | slowing down the progression of refraction decrease (guinea pig myopia model; day 15 of administration) | slowing down the progression of refraction decrease (guinea pig myopia model; day 29 of administration) |
| --- | --- | --- | --- | --- | --- | --- | --- |
| CCN(CCN1C2CCCC1CC2)C(=O)CCC(=O)N1c2ccccc2C(=O)Nc2cccnc21 [Compound 5] | 6.17 | – | 245.6 | 8.56 | – | – | – |
